Patent US12643882B2, “Inhibitors of human respiratory syncytial virus and metapneumovirus” (priority 2022, dated 2026)
Where two headings read alike, the source gives them in different places.

Legend:
hMPV-GFP virus = experiment: microbe, parasite or virus in culture; assay type: cell-based, human metapneumovirus
Method in brief: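 Antiviral IC50 was derived from imaging counts of GFP-expressing cells, with CC50 from a same-well CellTiter-Glo read, both by 4-parameter logistic fitting. VERO cells plus hMPV-GFP (MOI 1.25) were exposed 48 h at 37 °C to 10-point 3-fold compound dilutions (typical final 40,300–2 nM).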

RSV-A2-GFP virus = experiment: microbe, parasite or virus in culture; assay type: cell-based, Human Respiratory Syncytial Virus
Method in brief: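 IC50 (GFP-expressing cell counts by Acumen imaging) and CC50 (same-well CellTiter-Glo) were obtained by 4-parameter logistic fitting. Compounds were tested in 10-point 3-fold series for 96 h at 37° C, 5% CO2. Thawed Calu-1 ARF cells were infected at MOI 1.2 with GFP-reporter RSV-A2 in 2% FBS DMEM.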

[1] = VERO cells infected with hMPV-GFP, 48 hrs, GFP-expressing cells counted, read-out: hMPV EC50
[2] = Calu-1 cells infected with RSV-A2-GFP, 96 hrs, GFP-expressing cells counted, read-out: RSV EC50
[3] = human metapneumovirus, Vero, 48 h, read-out: hMPV EC50, VERO cells infected with hMPV-GFP, 48 hrs, GFP-expressing cells counted
[4] = human respiratory syncytial virus, Calu-1, 96 h, read-out: RSV EC50, Calu-1 cells infected with RSV-A2-GFP, 96 hrs, GFP-expressing cells counted

| SMILES | EC50 (hMPV-GFP virus; [1]) | EC50 (RSV-A2-GFP virus; [2]) | EC50 (hMPV-GFP virus; [3]) | EC50 (RSV-A2-GFP virus; [4]) |
| --- | --- | --- | --- | --- |
| CCc1nn(-c2ncccn2)cc1C(=O)N1C[C@@H]2[C@H](C1)[C@H]2Oc1cc(C(C)(C)N)cc(-c2ccc(F)cc2)n1 [Example 64, ((1R,5S,6s)-6-((4-(2-aminopropan-2-yl)-6-(4-fluorophenyl)pyridin-2-yl)oxy)-3-azabicyclo[3.1.0]hexan-3-yl)(3-ethyl-1-(pyrimidin-2-yl)-1H-pyrazol-4-yl)methanone] | > 0.1 µM | < 0.01 µM |  |  |
| CC(C)(N)c1cc(O[C@H]2[C@@H]3CN(C(=O)c4cn(-c5ncccn5)nc4C4CC4)C[C@@H]32)nc(-c2ccc(F)cc2)c1 [Example 65, ((1R,5S,6s)-6-((4-(2-aminopropan-2-yl)-6-(4-fluorophenyl)pyridin-2-yl)oxy)-3-azabicyclo[3.1.0]hexan-3-yl)(3-cyclopropyl-1-(pyrimidin-2-yl)-1H-pyrazol-4-yl)methanone] | > 0.1 µM | < 0.01 µM |  |  |
| CC(C)(N)c1cc(O[C@H]2[C@@H]3CN(C(=O)c4cn(-c5ncccn5)nc4C(F)F)C[C@@H]32)nc(-c2ccc(F)cc2)c1 [Example 66, ((1R,5S,6s)-6-((4-(2-aminopropan-2-yl)-6-(4-fluorophenyl)pyridin-2-yl)oxy)-3-azabicyclo[3.1.0]hexan-3-yl)(3-(difluoromethyl)-1-(pyrimidin-2-yl)-1H-pyrazol-4-yl)methanone] | > 0.1 µM | < 0.01 µM |  |  |
| CC(C)(N)c1cc(O[C@H]2[C@@H]3CN(C(=O)c4cn(-c5ncccn5)nc4C(F)(F)F)C[C@@H]32)nc(-c2ccc(F)cc2)c1 [Example 67, ((1R,5S,6s)-6-((4-(2-aminopropan-2-yl)-6-(4-fluorophenyl)pyridin-2-yl)oxy)-3-azabicyclo[3.1.0]hexan-3-yl)(1-(pyrimidin-2-yl)-3-(trifluoromethyl)-1H-pyrazol-4-yl)methanone] | > 0.1 µM | < 0.01 µM |  |  |
| CCOc1nn(-c2ncccn2)cc1C(=O)N1C[C@@H]2[C@H](C1)[C@H]2Oc1cc(C(C)(C)N)cc(-c2ccc(F)cc2)n1 [Example 68, ((1R,5S,6s)-6-((4-(2-aminopropan-2-yl)-6-(4-fluorophenyl)pyridin-2-yl)oxy)-3-azabicyclo[3.1.0]hexan-3-yl)(3-ethoxy-1-(pyrimidin-2-yl)-1H-pyrazol-4-yl)methanone] | > 0.1 µM | < 0.01 µM |  |  |
| CC(C)(N)c1cc(O[C@H]2[C@@H]3CN(C(=O)c4cn(-c5ncccn5)nc4OC(F)F)C[C@@H]32)nc(-c2ccc(F)cc2)c1 [Example 69, ((1R,5S,6s)-6-((4-(2-aminopropan-2-yl)-6-(4-fluorophenyl)pyridin-2-yl)oxy)-3-azabicyclo[3.1.0]hexan-3-yl)(3-(difluoromethoxy)-1-(pyrimidin-2-yl)-1H-pyrazol-4-yl)methanone] | > 0.1 µM | < 0.01 µM |  |  |
| CC(C)(N)c1cc(O[C@H]2[C@@H]3CN(C(=O)c4cn(-c5ncccn5)nc4N)C[C@@H]32)nc(-c2ccc(F)cc2)c1 [Example 70, (3-amino-1-(pyrimidin-2-yl)-1H-pyrazol-4-yl)((1R,5S,6s)-6-((4-(2-aminopropan-2-yl)-6-(4-fluorophenyl)pyridin-2-yl)oxy)-3-azabicyclo[3.1.0]hexan-3-yl)methanone] | > 0.1 µM | < 0.01 µM |  |  |
| Cc1nn(-c2ncc(F)cn2)cc1C(=O)N1C[C@@H]2[C@H](C1)[C@H]2Oc1cc(C(C)(C)N)cc(-c2ccc(F)cc2)n1 [Example 71, ((1R,5S,6s)-6-((4-(2-aminopropan-2-yl)-6-(4-fluorophenyl)pyridin-2-yl)oxy)-3-azabicyclo[3.1.0]hexan-3-yl)(1-(5-fluoropyrimidin-2-yl)-3-methyl-1H-pyrazol-4-yl)methanone] | > 0.1 µM | < 0.01 µM |  |  |
| Cc1ccnc(-n2cc(C(=O)N3C[C@@H]4[C@H](C3)[C@H]4Oc3cc(C(C)(C)N)cc(-c4ccc(F)cc4)n3)c(C)n2)n1 [Example 72, ((1R,5S,6s)-6-((4-(2-aminopropan-2-yl)-6-(4-fluorophenyl)pyridin-2-yl)oxy)-3-azabicyclo[3.1.0]hexan-3-yl)(3-methyl-1-(4-methylpyrimidin-2-yl)-1H-pyrazol-4-yl)methanone] | > 0.1 µM | < 0.01 µM |  |  |
| Cc1nn(-c2ncccn2)c(C)c1C(=O)N1C[C@@H]2[C@H](C1)[C@H]2Oc1cc(C(C)(C)N)cc(-c2ccc(F)cc2)n1 [Example 73, ((1R,5S,6s)-6-((4-(2-aminopropan-2-yl)-6-(4-fluorophenyl)pyridin-2-yl)oxy)-3-azabicyclo[3.1.0]hexan-3-yl)(3,5-dimethyl-1-(pyrimidin-2-yl)-1H-pyrazol-4-yl)methanone] | > 0.1 µM | < 0.01 µM |  |  |
| Cc1nc(-c2ncccn2)[nH]c1C(=O)N1C[C@@H]2[C@H](C1)[C@H]2Oc1cc(C(C)(C)N)cc(-c2ccc(F)cc2)n1 [Example 75, ((1R,5S,6s)-6-((4-(2-aminopropan-2-yl)-6-(4-fluorophenyl)pyridin-2-yl)oxy)-3-azabicyclo[3.1.0]hexan-3-yl)(4-methyl-2-(pyrimidin-2-yl)-1H-imidazol-5-yl)methanone] | > 0.1 µM | 0.01 to 0.1 µM |  |  |
| Cc1nn(-c2ncccn2)nc1C(=O)N1C[C@@H]2[C@H](C1)[C@H]2Oc1cc(C(C)(C)N)cc(-c2ccc(F)cc2)n1 [Example 76, ((1R,5S,6s)-6-((4-(2-aminopropan-2-yl)-6-(4-fluorophenyl)pyridin-2-yl)oxy)-3-azabicyclo[3.1.0]hexan-3-yl)(5-methyl-2-(pyrimidin-2-yl)-2H-1,2,3-triazol-4-yl)methanone] | > 0.1 µM | 0.01 to 0.1 µM |  |  |
| CC(C)(N)c1cc(O[C@H]2[C@@H]3CN(C(=O)c4cc(-c5ncccn5)ns4)C[C@@H]32)nc(-c2ccc(F)cc2)c1 [Example 77, ((1R,5S,6s)-6-((4-(2-aminopropan-2-yl)-6-(4-fluorophenyl)pyridin-2-yl)oxy)-3-azabicyclo[3.1.0]hexan-3-yl)(3-(pyrimidin-2-yl)isothiazol-5-yl)methanone] | > 0.1 µM | < 0.01 µM |  |  |
| Cc1nc(-c2ncccn2)oc1C(=O)N1C[C@@H]2[C@H](C1)[C@H]2Oc1cc(C(C)(C)N)cc(-c2ccc(F)cc2)n1 [Example 78, ((1R,5S,6s)-6-((4-(2-aminopropan-2-yl)-6-(4-fluorophenyl)pyridin-2-yl)oxy)-3-azabicyclo[3.1.0]hexan-3-yl)(4-methyl-2-(pyrimidin-2-yl)oxazol-5-yl)methanone] |  |  | > 0.1 µM | 0.01 to 0.1 µM |
| Cc1nn(-c2ncccn2)c(F)c1C(=O)N1C[C@@H]2[C@H](C1)[C@H]2Oc1cc(C(C)(C)N)cc(-c2ccc(F)cc2)n1 [Example 79, ((1R,5S,6s)-6-((4-(2-aminopropan-2-yl)-6-(4-fluorophenyl)pyridin-2-yl)oxy)-3-azabicyclo[3.1.0]hexan-3-yl)(5-fluoro-3-methyl-1-(pyrimidin-2-yl)-1H-pyrazol-4-yl)methanone] |  |  | > 0.1 µM | < 0.01 µM |
| Cc1nn(-c2ncccn2)cc1C(=O)N1C[C@@H]2[C@H](C1)[C@H]2Oc1cc(C(C)(C)N)cc(-c2ccc(F)c(F)c2)n1 [Example 80, ((1R,5S,6s)-6-((4-(2-aminopropan-2-yl)-6-(3,4-difluorophenyl)pyridin-2-yl)oxy)-3-azabicyclo[3.1.0]hexan-3-yl)(3-methyl-1-(pyrimidin-2-yl)-1H-pyrazol-4-yl)methanone] |  |  | 0.01 to 0.1 µM | < 0.01 µM |
| Cc1nn(-c2ncccn2)cc1C(=O)N1C[C@@H]2[C@H](C1)[C@H]2Oc1cc(C(C)(C)N)cc(-c2cc(F)c(F)cc2F)n1 [Example 81, ((1R,5S,6s)-6-((4-(2-aminopropan-2-yl)-6-(2,4,5-trifluorophenyl)pyridin-2-yl)oxy)-3-azabicyclo[3.1.0]hexan-3-yl)(3-methyl-1-(pyrimidin-2-yl)-1H-pyrazol-4-yl)methanone] | 0.01 to 0.1 µM | < 0.01 µM |  |  |
| Cc1nn(-c2ncccn2)cc1C(=O)N1C[C@@H]2[C@H](C1)[C@H]2Oc1cc(C(C)(C)N)cc(-c2cc(F)c(F)c(F)c2)n1 [Example 82, ((1R,5S,6s)-6-((4-(2-aminopropan-2-yl)-6-(3,4,5-trifluorophenyl)pyridin-2-yl)oxy)-3-azabicyclo[3.1.0]hexan-3-yl)(3-methyl-1-(pyrimidin-2-yl)-1H-pyrazol-4-yl)methanone] | 0.01 to 0.1 µM | < 0.01 µM |  |  |
| Cc1nn(-c2ncccn2)cc1C(=O)N1C[C@@H]2[C@H](C1)[C@H]2Oc1cc(C(C)(C)N)cc(-c2ccc(F)c(Cl)c2)n1 [Example 83, ((1R,5S,6s)-6-((4-(2-aminopropan-2-yl)-6-(3-chloro-4-fluorophenyl)pyridin-2-yl)oxy)-3-azabicyclo[3.1.0]hexan-3-yl)(3-methyl-1-(pyrimidin-2-yl)-1H-pyrazol-4-yl)methanone] | > 0.1 µM | < 0.01 µM |  |  |
| Cc1nn(-c2ncccn2)cc1C(=O)N1C[C@@H]2[C@H](C1)[C@H]2Oc1cc(C(C)(C)N)cc(-c2ccc(Cl)c(F)c2)n1 [Example 84, ((1R,5S,6s)-6-((4-(2-aminopropan-2-yl)-6-(4-chloro-3-fluorophenyl)pyridin-2-yl)oxy)-3-azabicyclo[3.1.0]hexan-3-yl)(3-methyl-1-(pyrimidin-2-yl)-1H-pyrazol-4-yl)methanone] | > 0.1 µM | < 0.01 µM |  |  |
| Cc1nn(-c2ncccn2)cc1C(=O)N1C[C@@H]2[C@H](C1)[C@H]2Oc1cc(C(C)(C)N)cc(-c2ccc(Cl)cc2)n1 [Example 85, ((1R,5S,6s)-6-((4-(2-aminopropan-2-yl)-6-(4-chlorophenyl)pyridin-2-yl)oxy)-3-azabicyclo[3.1.0]hexan-3-yl)(3-methyl-1-(pyrimidin-2-yl)-1H-pyrazol-4-yl)methanone] | 0.01 to 0.1 µM | < 0.01 µM |  |  |
